{
  "source": "patent US8703424B2",
  "about": "“Predicting human developmental toxicity of pharmaceuticals using human stem-like cells and metabolomics” (Stemina Biomarker Discovery, Inc., priority 2010, dated 2014)",
  "system": "WA09 hESCs",
  "experiment": "Random forest prediction of teratogenicity from metabolomics of spent media of dosed hESCs",
  "assay_type": "cell-based, human",
  "details": "blind study; model trained on TS1, 142 mass features; circulating dose",
  "description": "WA09 hESCs, obtained from WiCell Research Institute (NIH National Stem Cell Bank, Madison, Wis.) were cultured in 6-well plates on Matrigel (BD Biosciences, San Jose, Calif.), in mTeSR1 medium (Stem Cell Technologies, Vancouver, BC) incubated at 37° C. under 5% CO2 in a Thermo Electron Form a Series II Water Jacket CO2 Incubator. hESCs were passaged every three or four days at a 1:3 or 1:6 seeding density for routine culture conditions. For dosing experiments, hESCs were passaged at a low density of 1:10 or 1:12 so that they would not require passaging during the […] dosing protocol. To passage hES cells, the StemPro® EZPassage™ disposable stem cell passaging tool (Invitrogen, Carlsbad, Calif.) was used to detach the cells from the wells. Detached cells were removed with a pipette and distributed to new Matrigel plates.\nThese medium controls provided baseline mass spectral data.\nThe 2.5 mL of spent media per well from Example 1 was added to 1.67 mL acetonitrile to make a 40% acetonitrile solution. The acetonitrile acts to “quench” the spent media sample, slowing or halting many metabolic processes and aiding in precipitation of cellular proteins. Samples were either stored at −80° C. for later analysis, or for immediate analysis, 250 μL of the quenched solution was mixed with 250 μL of water, to a final concentration of 20% acetonitrile, then added to a 3 kDa molecular weight cut-off filter spin column (Microcon YM-3 Centrifugal Filter, Millipore, Billerica, Mass.). Each sample was then centrifuged in an IEC CL31R Multispeed Centrifuge (Thermo Scientific, Waltham, Mass.) at 13,000×g at 4° C. for 200 minutes. Following centrifugation, the flow-through was saved then dried for several hours in a Savant High Capacity Speedvac Plus Concentrator. The concentrated sample was then dissolved in 50 μL of 0.1% formic acid prior to LC-MS analysis.\n5 μl of each sample was injected.\nFollowing LC-MS, chromatograms were inspected for reproducibility. LC-MS runs with total ion counts that vary by more than 25% were repeated to ensure that samples could be accurately compared. These runs were then used to create mass features that correspond to molecules detected across the different LC-MS runs. Mass features were extracted from the LC-MS data using MassHunter Qualitative Analysis software (Agilent Technologies). The following criteria were used as general guidelines, however some flexibility and optimization was needed. m/z values within the range of 75-1500, with a charge of +1 or −1, and a centroid height greater than 1000 were used to generate “mass features.” The mass peaks that pass these criteria were used to fit isotope and adduct (Na^+, K^+, and NH4^+) patterns corresponding to individual molecules, and to establish the abundance of each mass feature. The abundance is calculated by MassHunter software as the sum of the isotopic and adduct peaks that correspond to a single molecular feature. After data deconvolution, mass features showing at least two ions (e.g. (M^+H)^+ and (M^+H)^++1 or (M^+H)^+ and (M^+Na)^+) and an abundance value greater than 50000 for positive-ion mode data and 10000 in negative-ion mode data were included in the data set used for binning of the mass features.\nFollowing feature selection by MassHunter, the data was further preprocessed by MassProfiler (Agilent) software which aligns mass features across multiple LC-MS data files. Mass features were generated for data from each drug treatment experiment (dosed and control) using the default alignment settings in MassProfiler with the requirement that a feature be present in at least 80% of the samples in one treatment. The mass feature datasets for each drug treatment experiment were further processed in a global manner using custom analysis scripts executed in the R statistical software environment. […]",
  "data": [
    {"smiles": "CN(C)CCOC(C)(c1ccccc1)c1ccccn1", "note": "(stereo not shown) [Doxylamine]", "values": [
      {"measurement": "Predicted teratogenicity (random forest statistical model)", "value": "Non"}
    ]}
  ]
}
